The text below walks through data of US5711020A (priority 1996, dated 1998).

The subject of series [1] is purified TNT-reducing agent.
Test in series [2]: not given
This is another data set of the same source.

Test in series [3]: not given
The source holds these as a separate data set.

A further series has as its system TNT reducing enzyme. In kind it is biochemical.
The next series has as its system nitrilase. In kind it is biochemical.

“And” between values parts separate entries of the source, which are not always exact repeats. Identical values can stand only once. Like-named read-outs stand apart in the source and are kept apart here.

For the compound `ClC(Br)C(Cl)Br` (stereo not drawn) [1,2-Dibromo-1,2-dichloroethane], the “Rate Constant k” value (pH 7.2) is 5.44E-03 min - 1 and 4.54E-03 min - 1.

Turning to `BrCCBr` [1,2-Dibromoethane], the “Rate Constant k” value (pH 7.2) worked out at 7.13E-04 min - 1. The Half life (vechten pond sediment, pH 7.2) stood at 16.2 h.

Compound `ClC(Cl)(Cl)Cl` [Carbontetrachloride] yielded a Half life (breukelveen sediment, pH 7.6) of 10.0 h. In addition, where the note is “pH 7.6”, the “Rate Constant k” value is 1.16E-03 min - 1.

`ClC(Cl)(Cl)C(Cl)(Cl)Cl` [HCA, hexachloroethane]: the Half life was 0.5 h (breukelveen sediment, pH 7.6); 1.5 h (dommel sediment, 0.0732 µM, pH 7.5); 9.5 h (loosdrechtse plassen sediment, 0.0732 µM, pH 7.7); 5.0 h (vechten pond sediment, pH 7.2). The “Rate Constant k” value is recorded as 2.33E-03 min - 1 (pH 7.2), 7.62E-03 min - 1 (pH 7.5), 2.47E-02 min - 1 (pH 7.6) and 1.22E-03 min - 1 (pH 7.7). Besides, the Half-life with purified dehalogenase (30 µM) is 3.33 h.

For `Ic1ccccc1` [Iodobenzene], the “Rate Constant k” value (pH 7.2) is given as 2.55E-05 min - 1. This compound came in with a Half life (vechten pond sediment, pH 7.2) of 453.0 h.

As for `BrC(Br)=C(Br)Br` [PBE, tetrabromoethene], the Half-life in the series on purified dehalogenase (30 µM) worked out at 18.33 h.

Regarding `ClC(Cl)=C(Cl)Cl` [PCE, tetrachloroethene], the “Rate Constant k” value (pH 7.2) is 4.05E-05 min - 1. Moreover, the Half life (vechten pond sediment, pH 7.2) is 285.5 h. Moreover, the Half-life in the series on purified dehalogenase (60 µM) is 3.33 h; with purified dehalogenase (100 µM), 10 h.

Regarding `ClC=C(Cl)Cl` [TCE, trichloroethene], in the series on purified dehalogenase (60 µM), the Half-life turned out to be 3.33 h.

As to `IC(I)=C(I)I` [Tetraiodoethene], the “Rate Constant k” value (pH 7.2) stood at 9.22E-02 min - 1. The Half life (vechten pond sediment, pH 7.2) was determined as 0.1 h.

For the compound `O=[N+]([O-])c1ccccc1` [nitrobenzene], the Half-life in series [1] was 28 h. Further, the t1/2 came out at 0.35 h in series [2] (bar-h sediment), 2.37 h in series [2] (beaver dam sediment), 2.37 h in series [2] (hickory hill sediment) and 2 h in series [2] (memorial park sediment). The “kcorr, calculated maximum rate assuming a 10% analytical method error” value in series [3] (pH 2.5) is listed as 0.25 ± 0.025 10^4 m^-1; in series [3] (pH 3.85), 0.12 ± 0.012 10^4 m^-1. Further, the kcorr was 4.6 ± 0.24 10^4 m^-1 in series [3] (pH 5.3); 4.2 ± 0.20 10^4 m^-1 in series [3] (pH 7); 8.5 ± 0.77 10^4 m^-1 in series [3] (pH 7.75); 9.3 ± 0.62 10^4 m^-1 in series [3] (pH 9.15); 7.8 ± 1.2 10^4 m^-1 in series [3] (pH 10.55). The “kobs, observed first-order disappearance rate constant and standard deviation” value in series [3] (pH 5.3) is recorded as 4.0 ± 0.21 10^-4 m^-1; in series [3] (pH 7), 3.8 ± 0.18 10^-4 m^-1; in series [3] (pH 7.75) it was 7.7 ± 0.70 10^-4 m^-1; in series [3] (pH 9.15) it was 8.6 ± 0.57 10^-4 m^-1; in series [3] (pH 10.55) it was 6.6 ± 1.0 10^-4 m^-1.

Regarding chymotrypsin, in the series with TNT reducing enzyme, the “effect on TNT-reducing activity” value is recorded as “no inhibition”. Further, the “effect on activity of the nitrilase” value in the series with nitrilase is reported as “inhibited”.

Turning to trypsin, the “effect on TNT-reducing activity” value with TNT reducing enzyme is “no inhibition”. Also, in the series on nitrilase, the “effect on activity of the nitrilase” value is given as “inhibited”.
